Source: US8012949B2, “Bisphosphonate compounds and methods with enhanced potency for multiple targets including FPPS, GGPPS, and DPPS” (The Board of Trustees of the University of Illinois, priority 2004, dated 2011)
pIC50: −log10 of the molar value. Where two headings read alike, the source gives them in different places.

Experiments:
[1] = system: MCF-7 (breast adenocarcinoma); assay: MCF-7 cell growth inhibition (MTT), incl. FOH/GGOH rescue; format: cell-based, human; settings: for IC50: Homo sapiens, MCF7
Excerpt: (§1) Cell Growth Inhibition Assays. […] A broth microdilution method was used to determine IC50 values for growth inhibition by each bisphosphonate. […] NBPs were typically initially dissolved in H2O (0.01 M) while NNBPs were typically dissolved in DMSO (0.01 M).
GraphPad PRISM® version 4.0 software for windows (GraphPad Software Inc., San Diego, Calif., www.graphpad.com) was used to fit the data to a rectangular hyperbolic function: I=(ImaxC)/(IC50+C);
For the “rescue” experiments, stock solutions of FOH or GGOH were prepared (in ethanol) and the requisite amounts added to the incubation media to produce a fixed 20 μM concentration.

[2] = system: NCI-H460 (lung large cell); assay: NCI-H460 cell growth inhibition (MTT); format: cell-based, human; settings: Table 1, experimental; for IC50: Homo sapiens, NCI-H460, read-out: NCI-H460 pIC50 (converted)
Excerpt: as §1
(§2) GraphPad PRISM® version 4.0 software for windows (GraphPad Software Inc., San Diego, Calif., www.graphpad.com) was used to fit the data to a rectangular hyperbolic function: I=(ImaxC)/(IC50+C); […]

Vγ2Vδ2 T cells = assay: γδ T cell activation (TNF-α release and proliferation); format: cell-based, human; settings: Table 2, -log10(value, M); for EC50: Homo sapiens, T-cell, read-out: γδ T Cell Avg pED50 (converted)
Protocol: γδ T Cell Assays. Vγ2Vδ2 T cell TNF-α release and proliferation were performed basically as described previously^1. Briefly, to measure bioactivity for Vγ2Vδ2 T cells, the CD4^+ JN.24, CD4^+ HF.2, CD8αα^+ 12G12, or the CD4^−8^− HD.108 Vγ2Vδ2 T cell clones were stimulated with phosphoantigens in the presence of CP.EBV (an EBV transformed B cell line) for CD4^+ clones or Va-2 (a transformed fibroblast) for CD8αα^+ and CD4^−8^− clones. CP.EBV and Va-2 were fixed with 0.05% glutaraldehyde (EM grade, Sigma, Mo.) for use as APCs. […] Curve fitting minima for each experiment (e.g. TNF-α release from JN.24 cells) were determined using the Global Fitting technique, as implemented in Prism 4.0. Curve fitting maxima were optimized for each individual compound without the use of any constraints.

[3] = system: SF-268 (central nervous system glioblastoma); assay: SF-268 cell growth inhibition (MTT); format: cell-based, human; settings: Table 1, experimental; for IC50: Homo sapiens, SF-268, read-out: SF-268 pIC50 (converted)
Excerpt: as §1, §2

human DPPS = molecular target: T1, human DPPS (Homo sapiens, UniProt Q5T2R2); assay: human DPPS enzyme inhibition; format: biochemical; settings: Table 1, experimental; for Ki: read-out: DPPS_pKi (converted)
T1 construct: made in house
T1 sequence (Q5T2R2 1-415): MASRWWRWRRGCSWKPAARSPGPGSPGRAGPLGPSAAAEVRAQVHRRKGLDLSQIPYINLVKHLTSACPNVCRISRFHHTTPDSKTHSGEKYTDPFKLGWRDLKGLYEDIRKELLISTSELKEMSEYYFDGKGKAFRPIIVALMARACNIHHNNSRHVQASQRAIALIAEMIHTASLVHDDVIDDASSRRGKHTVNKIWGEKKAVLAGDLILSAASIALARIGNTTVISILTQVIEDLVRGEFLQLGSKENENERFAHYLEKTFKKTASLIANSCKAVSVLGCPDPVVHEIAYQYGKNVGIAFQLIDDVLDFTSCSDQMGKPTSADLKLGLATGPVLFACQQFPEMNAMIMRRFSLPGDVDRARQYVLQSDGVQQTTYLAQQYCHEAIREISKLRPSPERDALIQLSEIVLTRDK
T1 sequence (Q86YH6 1-399 partner): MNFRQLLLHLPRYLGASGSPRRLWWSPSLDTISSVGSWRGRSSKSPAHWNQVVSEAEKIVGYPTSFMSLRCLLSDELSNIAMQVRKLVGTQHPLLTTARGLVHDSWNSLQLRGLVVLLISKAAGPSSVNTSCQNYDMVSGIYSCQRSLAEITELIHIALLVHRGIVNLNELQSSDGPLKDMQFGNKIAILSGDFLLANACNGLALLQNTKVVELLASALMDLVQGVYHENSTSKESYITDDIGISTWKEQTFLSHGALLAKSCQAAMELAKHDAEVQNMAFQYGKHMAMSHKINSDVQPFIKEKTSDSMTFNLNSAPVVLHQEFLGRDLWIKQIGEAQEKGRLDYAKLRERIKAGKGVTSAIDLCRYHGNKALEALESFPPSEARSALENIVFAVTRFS
Excerpt: (§3) To test our polypharmaceutical hypothesis, we expressed three enzymes: human FPPS, GGPPS and DPPS, and tested each for their inhibition by a series of bisphosphonates.

human FPPS = molecular target: T2, human FPPS (Homo sapiens, UniProt P14324); assay: human FPPS enzyme inhibition; format: biochemical; settings: for FPPS pKi (M) / Ki: Table 1, experimental; for pIC50: Table 9, read-out: H. sapiens FPPS IC50; for Ki: read-out: FPPS pKi (converted)
T2 construct: made in house
T2 sequence (P14324 1-419): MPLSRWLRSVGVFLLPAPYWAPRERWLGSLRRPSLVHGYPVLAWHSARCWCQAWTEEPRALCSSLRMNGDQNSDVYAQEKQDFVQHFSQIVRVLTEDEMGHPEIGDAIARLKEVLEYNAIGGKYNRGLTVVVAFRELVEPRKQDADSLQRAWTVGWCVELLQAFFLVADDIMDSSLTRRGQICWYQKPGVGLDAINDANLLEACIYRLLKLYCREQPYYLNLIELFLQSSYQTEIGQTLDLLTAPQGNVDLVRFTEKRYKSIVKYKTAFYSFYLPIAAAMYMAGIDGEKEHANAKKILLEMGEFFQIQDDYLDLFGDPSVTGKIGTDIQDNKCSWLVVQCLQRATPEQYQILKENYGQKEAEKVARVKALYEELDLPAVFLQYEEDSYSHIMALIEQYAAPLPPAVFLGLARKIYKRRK
Excerpt: as §3

T. brucei FPPS = T. brucei FPPS inhibition; format: biochemical, Trypanosoma brucei; settings: Table 9
[4] = molecular target: T3, human recombinant geranylgeranyl diphosphate synthase (hGGPPS) (Homo sapiens, UniProt O95749); assay: Human recombinant GGPPS inhibition (radiometric assay); format: biochemical; settings: Table 1, experimental; for Ki: read-out: GGPPS pKi (converted)
T3 construct: made in house
T3 sequence (O95749 1-300): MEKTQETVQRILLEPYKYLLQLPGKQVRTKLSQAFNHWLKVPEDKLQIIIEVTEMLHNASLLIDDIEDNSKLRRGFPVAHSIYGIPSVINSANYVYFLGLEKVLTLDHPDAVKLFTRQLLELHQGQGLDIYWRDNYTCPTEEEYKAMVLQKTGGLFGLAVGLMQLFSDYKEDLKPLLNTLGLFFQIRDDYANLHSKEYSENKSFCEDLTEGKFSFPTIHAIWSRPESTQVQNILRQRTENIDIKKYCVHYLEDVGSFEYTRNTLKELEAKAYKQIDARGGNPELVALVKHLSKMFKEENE
Protocol: as §3
Human recombinant GGPPS inhibition. The purification of human recombinant geranylgeranyl diphosphate synthase (hGGPPS) followed the protocol reported previously^2. GGPPS inhibition by bisphosphonates was determined using the radiometric assay reported previously^2 with slight modification. […] IPP and incubated at 37° C. for 20 min. The reaction was terminated by the addition of 75 μL of HCl/MeOH. Following a second 20 min incubation at 37° C. to effectively hydrolyze the allylic pyrophosphates, the reaction mixtures were neutralized by the addition of 75 μL of 6 N NaOH and extracted with 500 μL of hexane. 200 μL of the organic phase was transferred to a scintillation vial for counting. The IC50 values were obtained by fitting the data to the dose-response curve in Origin 6.1 (OriginLab Corp., Northampton, Mass., www.OriginLab.com).

[5] = Table 1, experimental, read-out: MCF-7 pIC50 (converted)
[6] = Table 2, -log10(value, M), read-out: MCF-7 Cell pIC50 (converted)

Row | SMILES | MCF-7 pIC50 (M) ([1]; Table 1, experimental) | MCF-7 Cell pIC50 (M) ([1]; Table 2, -log10(value, M)) | NCI-H460 pIC50 (M) [2] | γδ T Cell Avg pED50 (M) (Vγ2Vδ2 T cells) | SF-268 pIC50 (M) [3] | DPPS pKi (human DPPS) | FPPS pKi (M) (human FPPS) | further results
1 | O=P([O-])(O)C(C[n+]1cccc(Br)c1)P(=O)(O)O (centres unmarked) [BPH-483] | 4.0 M | 3.84 M | 4.1 M | 4.04 M | 4.0 M | 6.8 | 8.5 M | 
2 | CCCCCCCCCCCCCC[S+](C)CC(P(=O)([O-])O)P(=O)(O)O (centres unmarked) [BPH-694] | 4.9 M | 6.69 M | 6.0 M | 6.20 M | 5.9 M | 6.6 | 7.1 M | 
3 | Cc1ccc[n+](CC(P(=O)([O-])O)P(=O)(O)O)c1 (centres unmarked) [BPH-474] | 4.1 M | 4.42 M | 4.2 M | 3.85 M | 4.1 M | 6.9 | 8.4 M | 
4 | CCOCCOCCCc1ccc[n+](CC(P(=O)([O-])O)P(=O)(O)O)c1 (centres unmarked) [BPH-727] | 3.5 M | 3.62 M | 3.5 M | 3.77 M | 3.7 M | 6.8 | 8.2 M | 
5 | C[As+](C)(C)CC(O)(P(=O)([O-])O)P(=O)(O)O (centres unmarked) [BPH-560] |  | 2.71 M |  | 3.37 M |  |  |  | pIC50 (T. brucei FPPS): 3.56; pIC50 (human FPPS): 5.95
6 | O=P([O-])(O)C(O)(C[n+]1ccccc1)P(=O)(O)O (centres unmarked) [BPH-278] | 4.1 M | 4.10 M | 4.1 M | 4.20 M | 4.3 M | 7.2 | 8.6 M | 
7 | CCCCCCCCCCc1ccc[n+](CC(P(=O)([O-])O)P(=O)(O)O)c1 (centres unmarked) [BPH-638] |  |  |  |  |  |  |  | IC50 [1, 5]: 158 nM; IC50 [1, 6]: 170 nM; IC50 [2]: 158 nM; EC50 (Vγ2Vδ2 T cells): 1700 nM; IC50 [3]: 200 nM; Ki (human DPPS): 501 nM; Ki (human FPPS): 15.8 nM
8 | O=P([O-])(O)C(C[n+]1cccc(-c2ccccc2)c1)P(=O)(O)O (centres unmarked) [BPH-472] | 4.4 M | 4.46 M | 4.3 M | 4.07 M | 4.3 M | 7.1 | 8.6 M | GGPPS pKi (M) [4]: 6.6 M
9 | C[S+](C)CCC(O)(P(=O)([O-])O)P(=O)(O)O (centres unmarked) [BPH-540] |  | 2.68 M |  | 3.59 M |  |  |  | pIC50 (T. brucei FPPS): 4.95; pIC50 (human FPPS): 5.05
10 | O=P([O-])(O)C(O)(C[n+]1cccc(-c2ccccc2)c1)P(=O)(O)O (centres unmarked) [BPH-300] | 4.4 M |  | 4.5 M |  | 4.5 M | 6.9 | 8.3 M | 
11 | CCCCCCCCc1cc[n+](CC(P(=O)([O-])O)P(=O)(O)O)cc1 (centres unmarked) [BPH-717] |  |  |  |  |  |  |  | IC50 [1, 5]: 501 nM; IC50 [2]: 631 nM; IC50 [3]: 631 nM; Ki (human DPPS): 79.4 nM; Ki (human FPPS): 20 nM
12 | C[S+](C)CC(O)(P(=O)(O)O)P(=O)(O)O [BPH-527, (2-Hydroxy-2,2-bis-phosphono-ethyl)-dimethyl-sulfonium] |  | 3.36 M |  | 3.87 M |  |  |  | pIC50 (T. brucei FPPS): 6.11; pIC50 (human FPPS): 5.99
13 | C[P+](C)(C)CC(O)(P(=O)([O-])O)P(=O)(O)O (centres unmarked) [BPH-536] |  | 3.24 M |  | 3.72 M |  |  |  | pIC50 (T. brucei FPPS): 4.58; pIC50 (human FPPS): 4.92
14 | O=P([O-])(O)C(O)(C[n+]1cccc(-c2c[nH]cn2)c1)P(=O)(O)O (centres unmarked) [BPH-679] | 4.4 M | 4.65 M | 4.3 M | 3.34 M | 4.5 M | 6 | 8.2 M | GGPPS pKi (M) [4]: 5.0 M
15 | CCCCCCCCc1ccc[n+](CC(P(=O)([O-])O)P(=O)(O)O)c1 (centres unmarked) [BPH-637] |  |  |  |  |  |  |  | IC50 [1, 5]: 251 nM; IC50 [1, 6]: 219 nM; IC50 [2]: 2000 nM; EC50 (Vγ2Vδ2 T cells): 12600 nM; IC50 [3]: 1260 nM; Ki [4]: 39.8 nM; Ki (human DPPS): 501 nM
16 | CCCCCCCOc1ccc[n+](CC(P(=O)([O-])O)P(=O)(O)O)c1 (centres unmarked) [BPH-722] |  |  |  |  |  |  |  | IC50 [1, 5]: 2510 nM; IC50 [1, 6]: 468 nM; IC50 [2]: 501 nM; EC50 (Vγ2Vδ2 T cells): 27500 nM; IC50 [3]: 1000 nM; Ki [4]: 63.1 nM; Ki (human DPPS): 6.31 nM
17 | CCCCC[S+](C)CC(P(=O)([O-])O)P(=O)(O)O (centres unmarked) [BPH-684] |  |  |  |  |  |  |  | IC50 [1, 5]: 251000 nM; IC50 [1, 6]: 129000 nM; IC50 [2]: 158000 nM; EC50 (Vγ2Vδ2 T cells): 126000 nM; IC50 [3]: 200000 nM; Ki [4]: 251 nM; Ki (human DPPS): 100 nM; Ki (human FPPS): 10 nM
18 | CC(C)CCCC(C)CCOc1ccc[n+](CC(P(=O)([O-])O)P(=O)(O)O)c1 (centres unmarked) [BPH-728] | 4.5 M | 5.59 M | 4.6 M | 5.28 M | 4.9 M | 6.3 | 6.8 M | 
